Test results published in patent US10538475B2, “Amphiphilic cyclobutenes and cylobutanes” (priority 2012, dated 2020).
Like-named read-outs stand apart in the source and are kept apart here.

Tests used:
M. smeg (mc2155) [1] = test: MIC by 96-well microplate twofold dilution, M. smeg; assay type: cell-based; details: for MIC: M. smeg mc2155, minimal media, 3-4 day; for fold differences between MICs for M. smeg and M. tb: M. smeg vs M. tb
M. tb (CDC1551) = test: MIC by 96-well microplate twofold dilution, M. tb CDC1551; assay type: cell-based, Mycobacterium tuberculosis; details: minimal media, 5-7 weeks
M. tb (H37Rv) = test: MIC by 96-well microplate twofold dilution, M. tb H37Rv; assay type: cell-based, Mycobacterium tuberculosis; details: minimal media, 5-7 weeks
[2] = 1D 1H NMR aqueous stability and concentration dependent micelle formation; assay type: physicochemical; details: 100 μM, 500 μM, 750 μM, and 1000 μM; FIG. 2
Procedure: One-dimensional (1D)^1H-NMR spectroscopy was used to verify the chemical purity, aqueous stability, and concentration dependent micelle formation of eleven fatty acid analogs. Each compound was dissolved in deuterated dimethyl sulfoxide (DMSO-d6) to obtain a stock concentration of 20 mM. Four different concentrations were prepared from the stock solutions for NMR analysis: 1.00 mM, 750 μM, 500 μM, 100 μM. All NMR samples consisted of 600 μL of a deuterated 50 mM potassium phosphate buffer at pH 7.2 with 50 μM of 3 (trimethylsilyl) propionic-2,2,3,3-d4 acid sodium salt (TMSP). Each 600 μL NMR sample contains 30 μL (5%) of DMSO-d6 and was transferred to a 5 mm NMR tube for analysis.
A Bruker Avance DRX 500-MHz spectrometer equipped with a 5 mm triple-resonance cryoprobe (^1H, ^13C, ^15N) with a z-axis gradient was utilized for all 1D ^1H NMR experiments. Acquisition of NMR spectra was automated using a BACS-120 sample changer and Icon NMR software. All spectra were acquired at 298.15 K with 16 dummy scans, 64 scans, 32K data points, a spectral width of 5482.46 Hz, and a relaxation delay of 1.5 s. The NMR spectra were processed and analyzed using ACD/1D NMR Manager (Advanced Chemistry Development). The resulting 1D ^1H NMR spectra were visually inspected for evidence of micelle formation (peak broadening), or chemical instability/impurities (additional peaks). […]

RAW 264.7 macrophages = details: cited from earlier work
M. smeg (mc2155) [3] = details: M. tb vs M. smeg; cited from earlier work
[4] = highest concentration tested 1024 μg/ml
[5] = highest concentration tested 256 μg/ml
[6] = highest concentration tested 1024 μg/ml, read-out: MIC
[7] = Mycobacterium tuberculosis, highest concentration tested 256 μg/ml, read-out: MIC
[8] = Mycobacterium tuberculosis, H37RV, highest concentration tested 256 μg/ml, read-out: MIC

Row | Molecule | MIC (M. smeg (mc2155) [1]; [4]) [mg/L] | MIC (M. smeg (mc2155) [1]; read-out: MIC) [µM] | MIC (M. tb (CDC1551); [5]) [mg/L] | MIC (M. tb (CDC1551); read-out: MIC) [µM] | MIC (M. tb (H37Rv); [5]) [µg/mL] | MIC (M. tb (H37Rv); read-out: MIC) [µM] | fold differences between MICs for M. smeg and M. tb (M. smeg (mc2155) [1]) | also measured
1 | 2-(Octanoic acid, 8-yl) 3-octylcyclobutanone and 3-(octanoic acid, 8-yl) 2-octylcyclobutanone [Compound 3] | 64 | 197 | 64 | 197 | 32 | 99 | – | MIC (M. smeg (mc2155) [1]): ~313 µM
2 | O=C(O)CCCCCCCC1CCC1 [Compound 9, 8-Cyclobutyloctanoic acid] | – | 645 | – | – | – | – | five to ten | MIC (M. smeg (mc2155) [1]; [6]): 128 mg/L; MIC (M. tb (CDC1551); [7]): 4 mg/L; MIC (M. tb (H37Rv); [8]): 4 µg/mL
3 | CCCCCCCCC1=C(CCCCCCCC(=O)O)CC1 [Compound 6, 1-(Octanoic acid, 8-yl)-2-octylcyclobutene] | 256 | 830 | 128 | 415 | 16 | 52 | five to ten | –
4 | O=C(O)CCCCCCCC1CC(=O)C1 [Compound 10, 3-(Octanoic acid, 8-yl)cyclobutanone] | 128 | 603 | 128 | 603 | 256 | – | – | MIC (M. tb (H37Rv)): 1,206 μM
5 | CCCCCCCC[C@H]1CC[C@H]1CCCCCCCC(=O)O (relative stereo) [Compound 2, cis-9,10-Ethanooctadecanoic acid] | 64 | 206 | 8 | – | 16 | 52 | five to ten | MIC (M. smeg (mc2155) [1]): ~313 µM
6 | N[C@@H]1CONC1=O [DCS, D-cycloserine, reference compound] | 75 | 313 | 12.5 | 122 | 12.5 | 122 | – | –
7 | O=C(O)CCCCCCCC1C=CC1 (stereo not shown) [Compound 8, 8-(2-Cyclobuten-1-yl)-octanoic acid] | – | 326 | – | – | – | – | five to ten | MIC (M. smeg (mc2155) [1]; [6]): 64 mg/L; MIC (M. tb (CDC1551); [7]): 4 mg/L; MIC (M. tb (H37Rv); [8]): 4 µg/mL; micelle formation (peak broadening relative to TMSP) [2]: No micelle formation
8 | O=C(O)CCCCCCCC1CC(O)C1 (stereo not shown) [Compound 11, 3-(Octanoic acid)cyclobutanol] | 64 | 302 | 64 | 299 | 128 | 597 | – | MIC (M. smeg (mc2155) [1]): ~313 µM
9 | CCCCCCCC/C=C\CCCCCCCC(=O)O [oleate, oleic acid] | – | – | – | – | – | – | – | concentrations displaying some toxicity to this cell line (RAW 264.7 macrophages): ≥ 200 µM
10 | 2-(Octanoic acid, 8-yl) 3-octylcyclobutanol and 3-(Octanoic acid, 8-yl) 2-octylcyclobutanol [Compound 4] | 256 | 784 | 8 | – | 2 | – | five to ten | –
11 | CCCCCCCCCC(=O)O [Decanoic acid (DA), Decanoic acid, reference compound] | – | 752 | – | – | – | – | – | MIC (M. smeg (mc2155) [1]; [6]): 128 mg/L; MIC (M. tb (CDC1551); [7]): 32 mg/L; MIC (M. tb (CDC1551); Mycobacterium tuberculosis, read-out: MIC): 188 µM; MIC (M. tb (H37Rv); [8]): 32 µg/mL; MIC (M. tb (H37Rv); Mycobacterium tuberculosis, H37RV, read-out: MIC): 188 µM
12 | 2-Chloro-4-(octanoic acid, 8-yl) 3-octylcyclobutanone-; 2-Chloro-3-(octanoic acid, 8-yl) 4-octylcyclobutanone [Compound 5] | 256 | 713 | 256 | 713 | 16 | 45 | – | –
13 | NNC(=O)c1ccncc1 [Isoniazid] | – | – | – | – | – | – | – | fold more potent inhibition of M. tb compared with M. smeg (M. smeg (mc2155) [3]): 100 fold
